Values quoted from earlier work as cited in patent publication US7531581B2, “Method and use of acidified modified polymers to bind biocides in paints” (I-Tech AB, priority 2005, dated 2009).

Test system: barnacles
Details: serotonin antagonists and dopamine agonists

Q: With `CCCN1CCc2cccc3c2[C@H]1Cc1ccc(O)c(O)c1-3` [R (−)-NPA] as the molecule, how does the “effect on attachment of barnacles” value read?
A: inhibitory properties

Q: Which “effect on attachment of barnacles” value does the source give for `CC(C)C[C@H]1C(=O)N2CCC[C@H]2[C@]2(O)O[C@](NC(=O)[C@@H]3C=C4c5cccc6[nH]c(Br)c(c56)C[C@H]4N(C)C3)(C(C)C)C(=O)N12` [(+)-Bromocriptine] here?
A: inhibitory properties

Q: For `O=C(c1ccc(F)cc1)C1CCN(CCn2c(=O)[nH]c3ccccc3c2=O)CC1` [Ketanserin], which “effect on attachment of barnacles” value is on record?
A: inhibitory properties
